Patent US12544370B2, “Methods for cancer therapy” (ASCENTAGE PHARMA (SUZHOU) CO., LTD., priority 2018, dated 2026)

Test system: TKI-resistant patients with chronic phase (CP) or accelerated phase (AP) CML
Test: Phase I study, safety / treatment related adverse events (Example 1)
Description: The eligible patients received treatments until disease progression or intolerable toxicities. The primary efficacy endpoint in the CML AP and CP patients, was complete hematological response (CHR) and major cytogenetic response (MCyR) respectively, MCyR includes partial cytogenetic response (PCyR) and complete cytogenetic response (CCyR). Blood samples were collected at various time points on Day 1-2 and Day 27-28 during cycle 1 for PK analyses.
• 3 to 6 subjects in each dose group (traditional 3+3 dose increasing method) • Up to 15 subjects in the MTD dose group (safety and PK characteristics) • Dose extension studies: • Up to 60 subjects (CP/CML-AP) • Extended dose selection is based on initial safety and efficacy Study Endpoints Primary Endpoint

[1] = Example 1, Table 1, 70 patients

Cc1ccc(C(=O)Nc2ccc(CN3CCN(C)CC3)c(C(F)(F)F)c2)cc1C#Cc1cnc2[nH]ncc2c1 [compound of formula (I-A), 3-(2-(1H-pyrazolo[3,4-b]pyridin-5-yl)ethynyl)-4-methyl-N-(4-((4-methylpiperazin-1-yl)methyl)-3-(trifluoromethyl)phenyl)-benzamide]
TRAE ALT increased, Any grade [1]: 15 (21%) n (%) | TRAE ALT increased, Grade 3-4 [1]: 0 n (%) | TRAE AST increased, Any grade [1]: 17 (24%) n (%) | TRAE AST increased, Grade 3-4 [1]: 0 n (%) | TRAE Anaemia, Any grade [1]: 6 (8.6%) n (%) | TRAE Anaemia, Grade 3-4 [1]: 5 (7.1%) n (%) | TRAE CPK increased, Any grade [1]: 18 (26%) n (%) | TRAE CPK increased, Grade 3-4 [1]: 1 (1.4%) n (%) | TRAE Creatinine increased, Any grade [1]: 4 (5.7%) n (%) | TRAE Creatinine increased, Grade 3-4 [1]: 0 n (%) | TRAE GGT increased, Any grade [1]: 10 (14%) n (%) | TRAE GGT increased, Grade 3-4 [1]: 0 n (%) | TRAE Hyperbilirubinemia, Any grade [1]: 20 (29%) n (%) | TRAE Hyperbilirubinemia, Grade 3-4 [1]: 0 n (%) | TRAE Hyperglycaemia, Any grade [1]: 5 (7.1%) n (%) | TRAE Hyperglycaemia, Grade 3-4 [1]: 0 n (%) | TRAE Hypertriglyceridaemia, Any grade [1]: 36 (51%) n (%) | TRAE Hypertriglyceridaemia, Grade 3-4 [1]: 2 (2.9%) n (%) | TRAE Hypocalcaemia, Any grade [1]: 25 (36%) n (%) | TRAE Hypocalcaemia, Grade 3-4 [1]: 0 n (%) | TRAE Hypokalaemia, Any grade [1]: 12 (17%) n (%) | TRAE Hypokalaemia, Grade 3-4 [1]: 0 n (%) | TRAE Hyponatraemia, Any grade [1]: 5 (7.1%) n (%) | TRAE Hyponatraemia, Grade 3-4 [1]: 0 n (%) | TRAE Leucocytopenia, Any grade [1]: 12 (17%) n (%) | TRAE Leucocytopenia, Grade 3-4 [1]: 12 (17%) n (%) | TRAE Myalgia, Any grade [1]: 11 (16%) n (%) | TRAE Myalgia, Grade 3-4 [1]: 0 n (%) | TRAE Pyrexia, Any grade [1]: 13 (19%) n (%) | TRAE Pyrexia, Grade 3-4 [1]: 4 (5.7%) n (%) | TRAE Rash, Any grade [1]: 9 (13%) n (%) | TRAE Rash, Grade 3-4 [1]: 0 n (%) | TRAE Skin hyperpigmentation, Any grade [1]: 17 (24%) n (%) | TRAE Skin hyperpigmentation, Grade 3-4 [1]: 0 n (%) | TRAE Skin mass, Any grade [1]: 6 (8.6%) n (%) | TRAE Skin mass, Grade 3-4 [1]: 0 n (%) | TRAE Thrombocytopenia, Any grade [1]: 35 (50%) n (%) | TRAE Thrombocytopenia, Grade 3-4 [1]: 35 (50%) n (%) | TRAEs Hematological, Any grade [1]: 36 (51%) n (%) | TRAEs Hematological, Grade 3-4 [1]: 36 (51%) n (%) | TRAEs Non-hematological, Any grade [1]: 67 (96%) n (%) | TRAEs Non-hematological, Grade 3-4 [1]: 11 (16%) n (%) | TRAEs Overall, Any grade [1]: 67 (96%) n (%) | TRAEs Overall, Grade 3-4 [1]: 44 (63%) n (%) | ALT increased leading to dose interruption/reduction (Example 1, 20 mg (n = 4)): 0 n (%) | AST increased leading to dose interruption/reduction (Example 1, 20 mg (n = 4)): 0 n (%) | Amylase increased leading to dose interruption/reduction (Example 1, 20 mg (n = 4)): 1(25%) n (%) | Anemia leading to dose interruption/reduction (Example 1, 20 mg (n = 4)): 0 n (%) | Atrial fibrillation leading to dose interruption/reduction (Example 1, 20 mg (n = 4)): 0 n (%) | Cardiomyopathy leading to dose interruption/reduction (Example 1, 20 mg (n = 4)): 0 n (%) | GGT increased leading to dose interruption/reduction (Example 1, 20 mg (n = 4)): 0 n (%) | Hyperkalemia leading to dose interruption/reduction (Example 1, 20 mg (n = 4)): 0 n (%) | Hypertriglyceridemia leading to dose interruption/reduction (Example 1, 20 mg (n = 4)): 0 n (%) | Hypocalcemia leading to dose interruption/reduction (Example 1, 20 mg (n = 4)): 0 n (%) | Lacunar infarction leading to dose interruption/reduction (Example 1, 20 mg (n = 4)): 0 n (%) | Lipase increased leading to dose interruption/reduction (Example 1, 20 mg (n = 4)): 0 n (%) | Thrombocytopenia leading to dose interruption/reduction (Example 1, 20 mg (n = 4)): 1(25%) n (%) | ALT increased leading to dose interruption/reduction (Example 1, 30 mg (n = 37)): 0 n (%) | AST increased leading to dose interruption/reduction (Example 1, 30 mg (n = 37)): 0 n (%) | Amylase increased leading to dose interruption/reduction (Example 1, 30 mg (n = 37)): 0 n (%) | Anemia leading to dose interruption/reduction (Example 1, 30 mg (n = 37)): 1 n | Anemia leading to dose interruption/reduction, percent of cohort (Example 1, 30 mg (n = 37)): (2.7%) | Atrial fibrillation leading to dose interruption/reduction (Example 1, 30 mg (n = 37)): 1 n | Atrial fibrillation leading to dose interruption/reduction, percent of cohort (Example 1, 30 mg (n = 37)): (2.7%) | Cardiomyopathy leading to dose interruption/reduction (Example 1, 30 mg (n = 37)): 0 n (%) | GGT increased leading to dose interruption/reduction (Example 1, 30 mg (n = 37)): 0 n (%) | Hyperkalemia leading to dose interruption/reduction (Example 1, 30 mg (n = 37)): 1 n | Hyperkalemia leading to dose interruption/reduction, percent of cohort (Example 1, 30 mg (n = 37)): (2.7%) | Hypertriglyceridemia leading to dose interruption/reduction (Example 1, 30 mg (n = 37)): 1 n | Hypertriglyceridemia leading to dose interruption/reduction, percent of cohort (Example 1, 30 mg (n = 37)): (2.7%) | Hypocalcemia leading to dose interruption/reduction (Example 1, 30 mg (n = 37)): 2 n | Hypocalcemia leading to dose interruption/reduction, percent of cohort (Example 1, 30 mg (n = 37)): (5.4%) | Lacunar infarction leading to dose interruption/reduction (Example 1, 30 mg (n = 37)): 0 n (%) | Lipase increased leading to dose interruption/reduction (Example 1, 30 mg (n = 37)): 0 n (%) | Thrombocytopenia leading to dose interruption/reduction (Example 1, 30 mg (n = 37)): 12 n | Thrombocytopenia leading to dose interruption/reduction, percent of cohort (Example 1, 30 mg (n = 37)): (32%) | ALT increased leading to dose interruption/reduction (Example 1, 40 mg (n = 37)): 1 n | ALT increased leading to dose interruption/reduction, percent of cohort (Example 1, 40 mg (n = 37)): (2.7%) | AST increased leading to dose interruption/reduction (Example 1, 40 mg (n = 37)): 1 n | AST increased leading to dose interruption/reduction, percent of cohort (Example 1, 40 mg (n = 37)): (2.7%) | Amylase increased leading to dose interruption/reduction (Example 1, 40 mg (n = 37)): 0 n (%) | Anemia leading to dose interruption/reduction (Example 1, 40 mg (n = 37)): 0 n (%) | Atrial fibrillation leading to dose interruption/reduction (Example 1, 40 mg (n = 37)): 0 n (%) | Cardiomyopathy leading to dose interruption/reduction (Example 1, 40 mg (n = 37)): 0 n (%) | GGT increased leading to dose interruption/reduction (Example 1, 40 mg (n = 37)): 1 n | GGT increased leading to dose interruption/reduction, percent of cohort (Example 1, 40 mg (n = 37)): (2.7%) | Hyperkalemia leading to dose interruption/reduction (Example 1, 40 mg (n = 37)): 0 n (%) | Hypertriglyceridemia leading to dose interruption/reduction (Example 1, 40 mg (n = 37)): 0 n (%) | Hypocalcemia leading to dose interruption/reduction (Example 1, 40 mg (n = 37)): 0 n (%) | Lacunar infarction leading to dose interruption/reduction (Example 1, 40 mg (n = 37)): 0 n (%) | Lipase increased leading to dose interruption/reduction (Example 1, 40 mg (n = 37)): 1 n
